Data from patent publication US20240270762A1, “PENICILLIN-BINDING PROTEIN INHIBITORS” (priority 2021, published 2024).
Values after ≈ are worked out from the molar mass of the structure shown. Read-outs that look alike come from different tables or passages of the source.

Key:
A. baumannii ATCC 19606 = assay: microbe, parasite or virus in culture; assay type: cell-based; details: Acinetobacter baumannii, ATCC19606, read-out: MIC, A. baumannii ATCC 19606
[1] = biological target: T1, PBP1a from Acinetobacter baumannii (ATCC 19606) (Acinetobacter baumannii, UniProt A0ABX6CK30); assay: Bocillin-FL fluorescence polarization competition binding, A. baumannii PBP1a; details: fluorescence polarization competition binding assay using Bocillin-FL; read-out: A. baumannii PBP1a Potency
T1 sequence (A0ABX6CK30 1-851): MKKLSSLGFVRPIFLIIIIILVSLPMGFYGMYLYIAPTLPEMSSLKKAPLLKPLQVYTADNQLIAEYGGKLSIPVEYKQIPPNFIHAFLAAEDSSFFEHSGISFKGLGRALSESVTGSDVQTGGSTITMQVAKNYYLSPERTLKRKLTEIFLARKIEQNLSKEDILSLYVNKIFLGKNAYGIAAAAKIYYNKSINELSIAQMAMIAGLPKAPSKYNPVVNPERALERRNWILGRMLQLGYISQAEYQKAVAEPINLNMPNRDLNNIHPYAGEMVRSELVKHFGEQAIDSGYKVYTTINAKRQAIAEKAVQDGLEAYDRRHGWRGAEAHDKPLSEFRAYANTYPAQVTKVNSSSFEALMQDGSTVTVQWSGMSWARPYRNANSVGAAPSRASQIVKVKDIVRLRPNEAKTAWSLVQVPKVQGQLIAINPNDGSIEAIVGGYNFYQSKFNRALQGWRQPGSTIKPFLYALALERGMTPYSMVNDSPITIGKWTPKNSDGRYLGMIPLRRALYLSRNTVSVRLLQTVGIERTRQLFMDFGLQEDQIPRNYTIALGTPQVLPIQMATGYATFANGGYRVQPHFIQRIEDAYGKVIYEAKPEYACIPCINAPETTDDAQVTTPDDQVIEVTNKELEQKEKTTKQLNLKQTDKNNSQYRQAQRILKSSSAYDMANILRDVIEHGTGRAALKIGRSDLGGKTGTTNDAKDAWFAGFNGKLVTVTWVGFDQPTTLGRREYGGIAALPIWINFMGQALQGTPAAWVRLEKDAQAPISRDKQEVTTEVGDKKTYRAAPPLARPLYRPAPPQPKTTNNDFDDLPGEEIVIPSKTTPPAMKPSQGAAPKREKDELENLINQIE
How it was run: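 Purified PBP was preincubated with inhibitor (E. coli PBP3 1.5 μM, 30 min; P. aeruginosa PBP3 0.75 μM, A. baumannii PBP3 0.2 μM and PBP1a 1 μM, 15 min), then Bocillin-FL (0.1 μM; 0.05 μM for PBP1a) added and FP read up to 60 min. EC50 = 50% loss of bound probe.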

N. gonorrhoeae CDC-0197 = assay: Liquid broth MIC in Fastidious broth; details: Neisseria gonorrhoeae
A. baumannii CDC-0033 = assay: microbe, parasite or virus in culture; assay type: cell-based; details: Acinetobacter baumannii, CDC0033, read-out: MIC, A. baumannii CDC-0033
N. gonorrhoeae WHO M = assay: Liquid broth MIC in Fastidious broth; details: Neisseria gonorrhoeae
A. baumannii 1258916 = assay: microbe, parasite or virus in culture; assay type: cell-based, Acinetobacter baumannii; details: Acinetobacter baumannii, 1258916, read-out: MIC, A. baumannii 1258916
A. baumannii CDC-0083 = assay: microbe, parasite or virus in culture; assay type: cell-based; details: Acinetobacter baumannii, CDC0083, read-out: MIC, A. baumannii CDC-0083
N. gonorrhoeae WHO X = assay: Liquid broth MIC in Fastidious broth; details: Neisseria gonorrhoeae
Description: Liquid broth-based assays were used for antibacterial testing of PBP inhibitors in Neisseria gonorrhoeae. Briefly, cryo-preserved bacterial cultures of clinical strains were streaked for isolation on Chocolate Agar (72 g/L (2×) GC Agar Base (BD #228950) and 2% (2×) Hemoglobin was autoclaved at 121° C. for 20 minutes to sterilize. Once cooled to ˜50° C. the 2×GC Agar Base and 2× Hemoglobin solutions are combined and 1% IsoVitaleX Enrichment (BD #211876) was added to the solution). Strains were incubated at 36° C. and 5% CO2 to allow growth of colonies, 24 hours before inoculum preparation. 2-fold serial dilutions of test compounds were conducted in a 96 well plate with a final volume of 75 μL per well at 2-fold the final desired concentration in Fastidious broth (Remel #R07664). For preparation of assay inoculum, a direct suspension was prepared by aseptically swabbing 10-15 colonies from agar plates into culture tubes containing 2 mL of fresh sterile saline. After the dilution plates were set up, direct suspensions were then diluted in a cuvette containing sterile saline and the optical density was measured at 600 nm. Inocula were diluted such that 75 μL of this culture in Fastidious broth results in a starting bacterial concentration of 5×10^5 CFU/mL when added to the dilution plates. The plates were incubated for ˜24 hours at 36° C. and 5% CO2.

[2] = CDC0197, read-out: Minimum Inhibitory Concentration, CDC-0197
[3] = read-out: Minimum Inhibitory Concentration, WHO M
[4] = read-out: Minimum Inhibitory Concentration, WHO X
[5] = CDC0197, read-out: Minimum Inhibitory Concentration (MIC), N. gonorrhoeae CDC-0197
[6] = read-out: Minimum Inhibitory Concentration (MIC), N. gonorrhoeae WHO M
[7] = read-out: Minimum Inhibitory Concentration (MIC), N. gonorrhoeae WHO X

Row | SMILES | MIC (A. baumannii ATCC 19606) [µg/mL] | IC50 [1] [µM] | MIC (N. gonorrhoeae CDC-0197; [2]) [µg/mL] | MIC (A. baumannii CDC-0033) [µg/mL] | MIC (N. gonorrhoeae WHO M; [3]) [µg/mL] | MIC (A. baumannii 1258916) [µg/mL] | MIC (A. baumannii CDC-0083) [µg/mL] | MIC (N. gonorrhoeae WHO X; [4]) [µg/mL] | MIC (N. gonorrhoeae CDC-0197; [5]) [µg/mL] | MIC (N. gonorrhoeae WHO M; [6]) [µg/mL] | MIC (N. gonorrhoeae WHO X; [7]) [µg/mL]
1 | O=C(NCCS(=O)(=O)N1CCN(C(=O)N[C@@H](C(=O)N[C@H]2Cc3ccc(F)c(C(=O)O)c3OB2O)c2cc(F)c(O)c(O)c2Cl)C1=O)c1nccs1 [Example 264, (R)-3-((R)-2-(2-chloro-5-fluoro-3,4-dihydroxyphenyl)-2-(2-oxo-3-((2-(thiazole-2-carboxamido)ethyl)sulfonyl)imidazolidine-1-carboxamido)acetamido)-7-fluoro-2-hydroxy-3,4-dihydro-2H-benzo[e][1,2]oxaborinine-8-carboxylic acid] | < 1 | > 250 | 16 to 32 (≈ 20.7 to 41.4 µM) | < 1 | 4 to 8 (≈ 5.18 to 10.4 µM) | < 1 | < 1 | > 64 |  |  | 
2 | O=C(NCCN1CCN(C(=O)N[C@@H](C(=O)N[C@H]2Cc3ccc(F)c(C(=O)O)c3OB2O)c2cc(F)c(O)c(O)c2Cl)C(=O)C1=O)Nc1ccncc1 [Example 221, (R)-3-((R)-2-(2-chloro-5-fluoro-3,4-dihydroxyphenyl)-2-(2,3-dioxo-4-(2-(3-(pyridin-4-yl)ureido)ethyl)piperazine-1-carboxamido)acetamido)-7-fluoro-2-hydroxy-3,4-dihydro-2H-benzo[e][1,2]oxaborinine-8-carboxylic acid] | < 1 | > 250 |  | 2 to 4 (≈ 2.68 to 5.36 µM) |  | 2 to 4 (≈ 2.68 to 5.36 µM) | 32 to 64 (≈ 42.9 to 85.8 µM) |  | > 64 | 4 to 8 (≈ 5.36 to 10.7 µM) | > 64
3 | O=C(NCCN1CCN(C(=O)NC(C(=O)N[C@H]2Cc3ccc(F)c(C(=O)O)c3OB2O)c2cc(F)c(O)c(O)c2Cl)C(=O)C1=O)c1ccccc1 (stereo partly drawn) [Example 207, (3R)-3-(2-(4-(2-benzamidoethyl)-2,3-dioxopiperazine-1-carboxamido)-2-(2-chloro-5-fluoro-3,4-dihydroxyphenyl)acetamido)-7-fluoro-2-hydroxy-3,4-dihydro-2H-benzo[e][1,2]oxaborinine-8-carboxylic acid] | 2 to 4 (≈ 2.74 to 5.48 µM) | > 250 |  | 8 to 16 (≈ 11 to 21.9 µM) |  | 2 to 4 (≈ 2.74 to 5.48 µM) | 2 to 4 (≈ 2.74 to 5.48 µM) |  | 16 to 32 (≈ 21.9 to 43.8 µM) | 16 to 32 (≈ 21.9 to 43.8 µM) | > 64
4 | O=C(NCCS(=O)(=O)N1CCN(C(=O)N[C@@H](C(=O)N[C@H]2Cc3ccc(F)c(C(=O)O)c3OB2O)c2cc(F)c(O)c(O)c2Cl)C1=O)Nc1cccnc1 [Example 267, (R)-3-((R)-2-(2-chloro-5-fluoro-3,4-dihydroxyphenyl)-2-(2-oxo-3-((2-(3-(pyridin-3-yl)ureido)ethyl)sulfonyl)imidazolidine-1-carboxamido)acetamido)-7-fluoro-2-hydroxy-3,4-dihydro-2H-benzo[e][1,2]oxaborinine-8-carboxylic acid] | < 1 | > 250 | 16 to 32 (≈ 20.5 to 40.9 µM) | 8 to 16 (≈ 10.2 to 20.5 µM) | 4 to 8 (≈ 5.12 to 10.2 µM) | < 1 | < 1 | > 64 |  |  | 
5 | CN(CCN1CCN(C(=O)N[C@@H](C(=O)N[C@H]2Cc3ccc(F)c(C(=O)O)c3OB2O)c2cc(F)c(O)c(O)c2Cl)C(=O)C1=O)Cc1cccnc1 [Example 201, (R)-3-((R)-2-(2-chloro-5-fluoro-3,4-dihydroxyphenyl)-2-(4-(2-(methyl(pyridin-3-ylmethyl)amino)ethyl)-2,3-dioxopiperazine-1-carboxamido)acetamido)-7-fluoro-2-hydroxy-3,4-dihydro-2H-benzo[e][1,2]oxaborinine-8-carboxylic acid] | < 1 | > 250 |  | 2 to 4 (≈ 2.74 to 5.47 µM) |  | < 1 | < 1 |  | > 64 | 4 to 8 (≈ 5.47 to 10.9 µM) | > 64
6 | O=C(NCCCS(=O)(=O)N1CCN(C(=O)N[C@H](C(=O)N[C@H]2Cc3ccc(F)c(C(=O)O)c3OB2O)c2cc(F)c(O)c(O)c2Cl)C1=O)c1cccc(O)c1 [Example 270, (R)-3-((S)-2-(2-chloro-5-fluoro-3,4-dihydroxyphenyl)-2-(3-((3-(3-hydroxybenzamido)propyl)sulfonyl)-2-oxoimidazolidine-1-carboxamido)acetamido)-7-fluoro-2-hydroxy-3,4-dihydro-2H-benzo[e][1,2]oxaborinine-8-carboxylic acid] | 2 to 4 (≈ 2.51 to 5.03 µM) | > 250 | > 64 | 32 to 64 (≈ 40.2 to 80.4 µM) | > 64 | 8 to 16 (≈ 10.1 to 20.1 µM) | 2 to 4 (≈ 2.51 to 5.03 µM) | > 64 |  |  | 
7 | O=C(NCCCN1CCN(C(=O)N[C@@H](C(=O)N[C@H]2Cc3ccc(F)c(C(=O)O)c3OB2O)c2cc(F)c(O)c(O)c2Cl)C1=O)c1ccccc1 [Example 253, (R)-3-((R)-2-(3-(3-benzamidopropyl)-2-oxoimidazolidine-1-carboxamido)-2-(2-chloro-5-fluoro-3,4-dihydroxyphenyl)acetamido)-7-fluoro-2-hydroxy-3,4-dihydro-2H-benzo[e][1,2]oxaborinine-8-carboxylic acid] | < 1 | > 250 | > 64 | < 1 | 4 to 8 (≈ 5.59 to 11.2 µM) | < 1 | < 1 | > 64 |  |  | 
8 | O=C(NCCS(=O)(=O)N1CCN(C(=O)NC(C(=O)N[C@H]2Cc3ccc(F)c(C(=O)O)c3OB2O)c2cc(F)c(O)c(O)c2Cl)C1=O)Nc1cccc(O)c1 (stereo partly drawn) [Example 266, (3R)-3-(2-(2-chloro-5-fluoro-3,4-dihydroxyphenyl)-2-(3-((2-(3-(3-hydroxyphenyl)ureido)ethyl)sulfonyl)-2-oxoimidazolidine-1-carboxamido)acetamido)-7-fluoro-2-hydroxy-3,4-dihydro-2H-benzo[e][1,2]oxaborinine-8-carboxylic acid] | < 1 | > 250 | 16 to 32 (≈ 20.1 to 40.2 µM) | 2 to 4 (≈ 2.51 to 5.02 µM) | 4 to 8 (≈ 5.02 to 10 µM) | < 1 | < 1 | > 64 |  |  | 
9 | O=C(NCCN1CCN(C(=O)NC(C(=O)N[C@H]2Cc3ccc(F)c(C(=O)O)c3OB2O)c2cc(F)c(O)c(O)c2Cl)C(=O)C1=O)Nc1ccc(O)cc1 (stereo partly drawn) [Example 219, (3R)-3-(2-(2-chloro-5-fluoro-3,4-dihydroxyphenyl)-2-(4-(2-(3-(4-hydroxyphenyl)ureido)ethyl)-2,3-dioxopiperazine-1-carboxamido)acetamido)-7-fluoro-2-hydroxy-3,4-dihydro-2H-benzo[e][1,2]oxaborinine-8-carboxylic acid] | < 1 | > 250 |  | 8 to 16 (≈ 10.5 to 21 µM) |  | 2 to 4 (≈ 2.63 to 5.26 µM) | 8 to 16 (≈ 10.5 to 21 µM) |  | > 64 | 4 to 8 (≈ 5.26 to 10.5 µM) | > 64
